From US10570131B2, “Heterocyclic compounds and their use in preventing or treating bacterial infections” (MUTABILIS, priority 2015, dated 2020)
Where a name gives a salt, the structure may show the parent alone.

Columns and labels:
Type in all cases: cell-based
[1] = tested on: P. aeruginosa UFR59; test: MIC of ceftazidime alone and in combination with compounds (synergy), broth microdilution; settings: MIC of ceftazidime with compound fixed at 4 μg/mL; strain UFR59 (IMP-29)
[2] = tested on: C. murliniae 210102; test: as above; settings: MIC of ceftazidime with compound fixed at 4 μg/mL; strain 210102 (VIM-4)
[3] = tested on: E. coli UFR52; test: as above; settings: MIC of ceftazidime with compound fixed at 4 μg/mL; strain UFR52 (TEM-1, SHV-12, IMP-8)
[4] = tested on: P. aeruginosa UFR35; test: as above; settings: MIC of ceftazidime with compound fixed at 4 μg/mL; strain UFR35 (OXA-23)
Method in brief: (§1)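 Broth microdilution, CAMHB, 5×10^5 cfu/mL log-phase inoculum; cpds alone or + ceftazidime; 16-20 h, 35° C, ambient air; MIC = lowest conc. with no visible growth.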

[5] = tested on: P. aeruginosa UFR48; test: as above; settings: MIC of ceftazidime with compound fixed at 4 μg/mL; strain UFR48 (VIM-2)
Method in brief: as §1

[6] = tested on: P. aeruginosa UFR90; test: as above; settings: MIC of ceftazidime with compound fixed at 4 μg/mL; strain UFR90 (derepressed AmpC, OprD−)
Method in brief: as §1

[7] = tested on: P. aeruginosa UFR92; test: as above; settings: MIC of ceftazidime with compound fixed at 4 μg/mL; strain UFR92 (derepressed AmpC, OprD−)
Method in brief: as §1

[8] = tested on: E. coli UFR32; test: MIC of compounds alone, broth microdilution; settings: Escherichia coli, UFR32, read-out: MIC compounds of the invention alone
Method in brief: as §1

[9] = tested on: K. oxytoca UFR21; test: MIC of compounds alone, broth microdilution; settings: Klebsiella oxytoca, UFR21, read-out: MIC compounds of the invention alone
Method in brief: as §1

[10] = tested on: P. aeruginosa UFR35; test: MIC of compounds alone, broth microdilution; settings: Pseudomonas aeruginosa; strain UFR35 (OXA-23); read-out: MIC compounds of the invention alone
Method in brief: as §1

[11] = tested on: E. cloacae UFR70; test: MIC of compounds alone, broth microdilution; settings: Enterobacter cloacae, UFR70, read-out: MIC compounds of the invention alone
Method in brief: as §1

[12] = tested on: K. pneumoniae UFR77; test: MIC of compounds alone, broth microdilution; settings: Klebsiella pneumoniae; strain UFR77 (CMY-2); read-out: MIC compounds of the invention alone
Method in brief: as §1

[13] = tested on: P. aeruginosa UFR48; test: MIC of compounds alone, broth microdilution; settings: Pseudomonas aeruginosa; strain UFR48 (VIM-2); read-out: MIC compounds of the invention alone
Method in brief: as §1

[14] = tested on: E. cloacae UFR38; test: MIC of compounds alone, broth microdilution; settings: Enterobacter cloacae; strain UFR38 (CTX-M-15, NDM-1); read-out: MIC compounds of the invention alone
Method in brief: as §1

[15] = tested on: E. cloacae UFR85; test: MIC of compounds alone, broth microdilution; settings: Enterobacter cloacae, UFR85, read-out: MIC compounds of the invention alone
Method in brief: as §1

[16] = tested on: E. coli UFR52; test: MIC of compounds alone, broth microdilution; settings: Escherichia coli, UFR52, read-out: MIC compounds of the invention alone
Method in brief: as §1

[17] = tested on: P. aeruginosa UFR59; test: MIC of compounds alone, broth microdilution; settings: Pseudomonas aeruginosa; strain UFR59 (IMP-29); read-out: MIC compounds of the invention alone
Method in brief: as §1

[18] = tested on: P. aeruginosa UFR90; test: MIC of compounds alone, broth microdilution; settings: Pseudomonas aeruginosa, UFR90, read-out: MIC compounds of the invention alone
Method in brief: as §1

[19] = tested on: P. aeruginosa UFR93; test: MIC of compounds alone, broth microdilution; settings: Pseudomonas aeruginosa, UFR93, read-out: MIC compounds of the invention alone
Method in brief: as §1

[20] = tested on: K. pneumoniae UFR24; test: MIC of compounds alone, broth microdilution; settings: Klebsiella pneumoniae, UFR24, read-out: MIC compounds of the invention alone
Method in brief: as §1

[21] = tested on: C. murliniae 210102; test: MIC of compounds alone, broth microdilution; settings: strain 210102 (VIM-4); read-out: MIC compounds of the invention alone
Method in brief: as §1

[22] = tested on: P. aeruginosa UFR47; test: MIC of compounds alone, broth microdilution; settings: Pseudomonas aeruginosa; strain UFR47 (VIM-1); read-out: MIC compounds of the invention alone
Method in brief: as §1

[23] = tested on: E. coli UFR61O; test: MIC of compounds alone, broth microdilution; settings: Escherichia coli, UFR61O, read-out: MIC compounds of the invention alone
Method in brief: as §1

[24] = tested on: E. coli UFR74; test: MIC of compounds alone, broth microdilution; settings: Escherichia coli, UFR74, read-out: MIC compounds of the invention alone
Method in brief: as §1

[25] = tested on: K. pneumoniae UFR68; test: MIC of compounds alone, broth microdilution; settings: Klebsiella pneumoniae, UFR68, read-out: MIC compounds of the invention alone
Method in brief: as §1

[26] = tested on: K. pneumoniae 160143; test: MIC of compounds alone, broth microdilution; settings: Klebsiella pneumoniae, 160143, read-out: MIC compounds of the invention alone
Method in brief: as §1

[27] = tested on: K. pneumoniae 200047; test: MIC of compounds alone, broth microdilution; settings: Klebsiella pneumoniae, 200047, read-out: MIC compounds of the invention alone
Method in brief: as §1

[28] = tested on: E. cloacae 260508; test: MIC of compounds alone, broth microdilution; settings: Enterobacter cloacae, 260508, read-out: MIC compounds of the invention alone
Method in brief: as §1

[29] = tested on: E. coli UFR18; test: MIC of compounds alone, broth microdilution; settings: Escherichia coli; strain UFR18 (CTX-M-15, OXA-204); read-out: MIC compounds of the invention alone
Method in brief: as §1

[30] = tested on: P. aeruginosa UFR92; test: MIC of compounds alone, broth microdilution; settings: Pseudomonas aeruginosa, UFR92, read-out: MIC compounds of the invention alone
Method in brief: as §1

NC[C@@H]1CC(=NOCC(N)=O)[C@@H]2CN1C(=O)N2OS(=O)(=O)O (mixture of isomers) [Example 5, sodium and 2,2,2-trifluroacetate [(2S,5S)-4-(2-amino-2-oxo-ethoxy)imino-2-(azaniumylmethyl)-7-oxo-1,6-diazabicyclo[3.2.1]octan-6-yl] sulfate]
MIC, combination of CAZ and compounds of the invention at 4 μg/mL [1]: <0.25 µg/mL
MIC, combination of CAZ and compounds of the invention at 4 μg/mL [2]: 1 µg/mL
MIC, combination of CAZ and compounds of the invention at 4 μg/mL [3]: ≤0.25 µg/mL
MIC, combination of CAZ and compounds of the invention at 4 μg/mL [4]: <0.25 µg/mL
MIC, combination of CAZ and compounds of the invention at 4 μg/mL [5]: <0.25 µg/mL
MIC, combination of CAZ and compounds of the invention at 4 μg/mL [6]: <0.25 µg/mL
MIC, combination of CAZ and compounds of the invention at 4 μg/mL [7]: <0.25 µg/mL
MIC [8]: 1 µg/mL
MIC [9]: > 32 µg/mL
MIC [10]: 1 µg/mL
MIC [11]: > 32 µg/mL
MIC [12]: > 32 µg/mL
MIC [13]: 2 µg/mL
MIC [14]: 0.125 µg/mL
MIC [15]: > 32 µg/mL
MIC [16]: 8 µg/mL
MIC [17]: 4 µg/mL
MIC [18]: 1 µg/mL
MIC [19]: 4 µg/mL
MIC [20]: > 32 µg/mL
MIC [21]: > 32 µg/mL
MIC [22]: 2 µg/mL
MIC [23]: 0.5 µg/mL
MIC [24]: > 32 µg/mL
MIC [25]: > 32 µg/mL
MIC [26]: > 32 µg/mL
MIC [27]: > 32 µg/mL
MIC [28]: 32 µg/mL
MIC [29]: 0.25 µg/mL
MIC [30]: 2 µg/mL

NC[C@@H]1CC(=O)[C@@H]2CN1C(=O)N2OS(=O)(=O)O [Example 6, 2,2,2-trifluroacetate and sodium [(2S,5S)-2-(azaniumylmethyl)-4,7-dioxo-1,6-diazabicyclo[3.2.1]octan-6-yl] sulfate]
MIC, combination of CAZ and compounds of the invention at 4 μg/mL [1]: ≤0.25 µg/mL
MIC, combination of CAZ and compounds of the invention at 4 μg/mL [2]: 4 µg/mL
MIC, combination of CAZ and compounds of the invention at 4 μg/mL [3]: <0.25 µg/mL
MIC, combination of CAZ and compounds of the invention at 4 μg/mL [4]: <0.25 µg/mL
MIC, combination of CAZ and compounds of the invention at 4 μg/mL [5]: ≤0.25 µg/mL
MIC, combination of CAZ and compounds of the invention at 4 μg/mL [6]: <0.25 µg/mL
MIC, combination of CAZ and compounds of the invention at 4 μg/mL [7]: ≤0.25 µg/mL
MIC [8]: 1 µg/mL
MIC [9]: > 32 µg/mL
MIC [10]: 4 µg/mL
MIC [11]: > 32 µg/mL
MIC [12]: > 32 µg/mL
MIC [13]: 8 µg/mL
MIC [14]: 0.5 µg/mL
MIC [15]: > 32 µg/mL
MIC [16]: 2 µg/mL
MIC [17]: 16 µg/mL
MIC [18]: 4 µg/mL
MIC [19]: 8 µg/mL
MIC [20]: > 32 µg/mL
MIC [21]: > 32 µg/mL
MIC [22]: 4 µg/mL
MIC [23]: 4 µg/mL
MIC [24]: > 32 µg/mL
MIC [25]: > 32 µg/mL
MIC [26]: > 32 µg/mL
MIC [27]: > 32 µg/mL
MIC [28]: > 32 µg/mL
MIC [29]: 1 µg/mL
MIC [30]: 4 µg/mL
